{"source": "paper PMC4769034", "about": "(Journal of medicinal chemistry, 2015)", "key": {"rickettsial infection": {"test_system": "rickettsial infection", "conditions": "mouse, in vivo; cited from earlier work"}, "[1]": {"conditions": "no reference given; cited from earlier work"}, "PKA": {"test_system": "PKA", "conditions": "cited from earlier work"}, "PDEs": {"test_system": "PDEs", "conditions": "cited from earlier work"}, "plasma leptin": {"test_system": "plasma leptin", "conditions": "50 mg/kg by oral gavage for 3 weeks; cited from earlier work"}, "[2]": {"conditions": "cited from earlier work"}, "[3]": {"test_system": "Middle East respiratory syndrome coronavirus (MERS-Cov)", "conditions": "cited from earlier work"}, "hERG": {"test_system": "hERG", "conditions": "cited from earlier work"}, "MIA PaCa-2 cells": {"test_system": "MIA PaCa-2 cells", "conditions": "10 mg/kg via i.p. injection for 3 weeks; cited from earlier work"}, "[4]": {"conditions": "cited from earlier work", "remark": "listed apart in the source"}, "[5]": {"test_system": "pancreatic ductal adenocarcinoma (PDA) cells", "conditions": "cited from earlier work"}, "CYP450 enzymes": {"test_system": "CYP450 enzymes", "conditions": "cited from earlier work"}, "[6]": {"test": "Solubility in water by HPLC analysis"}, "[7]": {"test": "Solubility in ethanol by HPLC analysis", "conditions": "vs compound 1"}}}
{"smiles": "CC(C)(C)c1cc(C(=O)/C(C#N)=N/Nc2cccc(Cl)c2)no1", "note": "[Compound 1, 2-(5-tert-butylisoxazol-3-yl)-N′-(3-chlorophenyl)-2-oxoacetohy-drazonoyl cyanide]", "values": [{"measurement": "survival after rickettsial infection", "setting": "rickettsial infection", "value": "dramatically improved survival"}, {"measurement": "membrane permeability", "setting": "[1]", "value": "good membrane permeability"}, {"measurement": "effect toward PKA", "setting": "PKA", "value": "no effect"}, {"measurement": "inhibitory effects on PDEs", "setting": "PDEs", "value": "no significant inhibitory effects"}, {"measurement": "plasma leptin", "setting": "plasma leptin", "value": "significantly reduces plasma leptin"}, {"measurement": "bioavailability", "setting": "[2]", "value": "excellent bioavailability"}, {"measurement": "MERS-CoV viral yields", "setting": "[3]", "value": "significantly reduce viral yields"}, {"measurement": "inhibitory activity toward hERG", "setting": "hERG", "value": "very weak inhibitory activities"}, {"measurement": "metastasis to the liver", "setting": "MIA PaCa-2 cells", "value": "significantly decrease metastasis to the liver"}, {"measurement": "toxicity to animals", "setting": "[4]", "value": "low toxicity"}, {"measurement": "PDA cell migration and invasion", "setting": "[5]", "value": "significant decrease"}, {"measurement": "effect on PDA cell proliferation and viability", "setting": "[5]", "value": "no obvious effect"}, {"measurement": "inhibitory activity toward CYP450 enzymes", "setting": "CYP450 enzymes", "value": "very weak inhibitory activities"}]}
{"smiles": "CC(C)(C)c1cc(C(=O)/C(C#N)=N/Nc2cc(C(F)(F)F)cc(C(F)(F)F)c2)no1", "note": "[Compound 25, N′-(3,5-Bis(trifluoromethyl)phenyl)-2-(5-tert-butylisoxazol-3-yl)-2-oxoacetohydrazonoyl Cyanide]", "values": [{"measurement": "fold improvement of solubility in water in comparison with 1", "setting": "[6]; vs compound 1", "value": "approximately 70 fold"}, {"measurement": "solubility at 24 h", "setting": "[6]; water", "value": "418 ± 17.3", "unit": "µg/mL"}, {"measurement": "fold improvement of solubility in ethanol in comparison with 1", "setting": "[7]", "value": "~10", "unit": "fold"}]}
